This is an account of results in patent publication US20240327392A1, “HETEROCYCLOALKYL-SUBSTITUTED POLYHETEROAZOLE DERIVATIVES AS MEDICAMENTS FOR TREATING AND/OR PREVENTING RS VIRUS INFECTIONS” (ALBIUS SCIENCES ALPHA PRIVATE LIMITED, priority 2021, published 2024).

SMILES strings stand for the structures.

The test system of the test is human RS virus A2 strain. The experiment in a line: In vitro test for anti-RS virus proliferation inhibitory activity (quantitative RT-PCR of RS virus RNA copy number in infected Vero cells). The test is classed as cell-based. Particulars: 72 h; Vero cells infected with human RS virus A2 strain, 3 days of incubation, RS virus RNA copy number by quantitative RT-PCR; read-out: Anti-RS virus Activity. As for the experimental part: A mixture of Vero cells (3.4×10^5 cells/mL) and human RS virus A2 strain (1.7×10^4 TCID50/mL) (EMEM medium supplemented with 10% FCS) was added to a 96-well plate at 50 μL/well, and the 10% FCS-supplemented EMEM medium adjusted to the desired final concentration of the compounds to be tested was added at 50 μL/well, followed by incubating the plate at 37° C. in the presence of 5% CO2 at 37° C. After 3 days of incubation, the supernatant was removed, the cells were washed with PBS(−), and the cell lysis buffer supplied with the SingleShot (registered trademark) Cell Lysis Kit (Bio-Rad) was added dropwise at 50 μL/well to lysis the cells thereby providing the cell lysate.
Human RS virus RNA copy number in the cell lysate was determined by quantitative RT-PCR using iTaq Universal SYBR Green One-Step Kit (Bio-Rad). Specifically, primers targeting human RS virus N gene (Rameix-Welti et al, Nat Commun5: 5104, 2014. doi: 10.1038/ncomms6104) was used to prepare the reaction solution according to the instructions provided with the kit, and a 96-well PikoReal Real-Time PCR System (TCR0096, Thermo Fisher Scientific) was used to detect PCR reaction and signal assay.
The copy number was calculated by the relative method using the comparative Ct method using compound-free virus-infected cells as controls.
Regarding `O=S(=O)(N1CCOCC1)N1CC2(CC2)C[C@H]1c1nc(CCCc2ccccc2)no1` [Compound 5AE, (S)-4-((6-(3-(3-phenylpropyl)-1,2,4-oxadiazole-5-yl)-5-azaspiro[2.4]heptan-5-yl)sulfonyl)morpholine], the IC50 was in the range of 10 to 50 µM. As for `COc1ccc(S(=O)(=O)N2CC3(CC3)C[C@H]2c2nc(CCCc3ccccc3)no2)cc1` [Compound 5AI, (S)-5-(5-((4-methoxyphenyl)sulfonyl)-5-azabicyclo[2.4]heptan-6-yl)-3-(3-phenylpropyl)-1,2,4-oxadiazole], the figure is 10 to 50 µM; as for `O=S(=O)(c1ccc(F)cc1)N1CC2(CC2)C[C@H]1c1nc(CCCc2ccccc2)no1` [Compound 5AJ, (S)-5-(5-((4-fluorophenyl)sulfonyl)-5-azaspiro[2.4]heptan-6-yl)-3-(3-phenylpropyl)-1,2,4-oxadiazole], less than 10 µM; as for `CN(C)c1ccc(S(=O)(=O)N2CC3(CC3)C[C@H]2c2nc(CCCc3ccccc3)no2)cc1` [Compound 5AK, (S)-N,N-dimethyl-4-((6-(3-(3-phenylpropyl)-1,2,4-oxadiazole-5-yl)-5-azaspiro[2.4]heptan-5-yl)sulfonyl)aniline], less than 10 µM.

Take `CN(C)c1cccc2c(S(=O)(=O)N3CC4(CC4)C[C@H]3c3nc(CCCc4ccccc4)no3)cccc12` [Compound 5AL, (S)-N,N-dimethyll-5-((6-(3-(3-phenylpropyl)-1,2,4-oxadiazole-5-yl)-5-azaspiro[2.4]heptan-5-yl)sulfonyl)naphthalen-1-amine]: the IC50 was less than 10 µM. As for `CC(C)(C)OC(=O)N1CC(CS(=O)(=O)N2CC3(CC3)C[C@H]2c2nc(CCCc3ccccc3)no2)C1` [Compound 5AM, tert-buthyl (S)-3-(((6-(3-(3-phenylpropyl)-1,2,4-oxadiazole-5-yl)-5-azaspiro[2.4]heptan-5-yl)sulfonyl)methyl)azetidin-1-carboxylate], the figure is less than 10 µM. As for `CC(C)(C)OC(=O)N1CCC(CS(=O)(=O)N2CC3(CC3)C[C@H]2c2nc(CCCc3ccccc3)no2)CC1` [Compound 5AN, tert-buthyl (S)-4-(((6-(3-(3-phenylpropyl)-1,2,4-oxadiazole-5-yl)-5-azaspiro[2.4]heptan-5-yl)sulfonyl)methyl)piperidin-1-carboxylate], the figure is less than 10 µM.

For the compound `CC(C)(C)OC(=O)N1CCC(S(=O)(=O)N2CC3(CC3)C[C@H]2c2nc(CCCc3ccccc3)no2)CC1` [Compound 5AO, tert-buthyl (S)-4-((6-(3-(3-phenylpropyl)-1,2,4-oxadiazole-5-yl)-5-azaspiro[2.4]heptan-5-yl)sulfonyl)piperidin-1-carboxylate], the IC50 is less than 10 µM.

Regarding `O=S(=O)(C1CCOCC1)N1CC2(CC2)C[C@H]1c1nc(CCCc2ccccc2)no1` [Compound 5AP, (S)-3-(3-phenylpropyl)-5-(5-((tetrahydro-2H-pyran-4-yl)sulfonyl)-5-azaspiro[2.4]heptan-6-yl)-1,2,4-oxadiazole], the IC50 was 10 to 50 µM.

`O=S(=O)(C1CCCCC1)N1CC2(CC2)C[C@H]1c1nc(CCCc2ccccc2)no1` [Compound 5B, 3-(3-phenylpropyl)-5-{(6S)-5-cyclohexylsulfonyl-5-azaspiro[2.4]hept-6-yl}-1,2,4-oxadiazole]: the IC50 is less than 10 µM. For `CS(=O)(=O)N1CC2(CC2)C[C@H]1c1nc(CCCc2ccccc2)no1` [Compound 5C, 3-(3-phenylpropyl)-5-{(6S)-5-methanesulfonyl-5-azaspiro[2.4]hept-6-yl}-1,2,4-oxadiazole] the value was greater than 50 µM; for `O=S(=O)(c1ccccc1)N1CC2(CC2)C[C@H]1c1nc(CCCc2ccccc2)no1` [Compound 5D, 3-(3-phenylpropyl)-5-{(6S)-5-benzenesulfonyl-5-azaspiro[2.4]hept-6-yl}-1,2,4-oxadiazole], greater than 50 µM; for `O=S(=O)(Cc1ccccc1)N1CC2(CC2)C[C@H]1c1nc(CCCc2ccccc2)no1` [Compound 5E, 3-(3-Phenylpropyl)-5-{(6S)-5-benzylsulfonyl-5-azaspiro[2.4]hept-6-yl}-1,2,4-oxadiazole], 10 to 50 µM.

Consider `CC(C)CS(=O)(=O)N1CC(CC2CCC2)CC1c1nc(CCCc2ccccc2)no1` (stereo not drawn) [Compound 6A, 3-(3-phenylpropyl)-5-(1-isobutylsulfonyl-4-cyclobutylmethylpyrrolidin-2-yl)-1,2,4-oxadiazole], for which the IC50 was less than 10 µM. For `CCOC(=O)C1CCN(S(=O)(=O)N2CC(CC3CCC3)CC2c2nc(CCCc3ccccc3)no2)CC1` (stereo not drawn) [Compound 6AC, ethyl 1-((4-(cyclobuthylmethyl)-2-(3-(3-phenylpropyl)-1,2,4-oxadiazole-5-yl)pyrrolidin-1-yl)sulfonyl)piperidin-4-carboxylate] the value was 10 to 50 µM; for `O=S(=O)(N1CCCCC1)N1CC(CC2CCC2)CC1c1nc(CCCc2ccccc2)no1` (stereo not drawn) [Compound 6AD, 5-(4-(cyclobuthylmethyl)-1-(piperidin-1-ylsulfonyl)pyrrolidin-2-yl)-3-(3-phenylpropyl)-1,2,4-oxadiazole], 10 to 50 µM; for `O=S(=O)(N1CCOCC1)N1CC(CC2CCC2)CC1c1nc(CCCc2ccccc2)no1` (stereo not drawn) [Compound 6AE, 4-((4-(cyclobuthylmethyl)-2-(3-(3-phenylpropyl)-1,2,4-oxadiazole-5-yl)pyrrolidin-1-yyl)sulfonyl)morpholine], 10 to 50 µM. As for `COc1ccc(S(=O)(=O)N2CC(CC3CCC3)CC2c2nc(CCCc3ccccc3)no2)cc1` (stereo not drawn) [Compound 6AI, 5-(4-(cyclobuthylmethyl)-1-((4-methoxyphenyl)sulfonyl)pyrrolidin-2-yl)-3-(3-phenylpropyl)-1,2,4-oxadiazole], the figure is less than 10 µM; as for `O=S(=O)(c1ccc(F)cc1)N1CC(CC2CCC2)CC1c1nc(CCCc2ccccc2)no1` (stereo not drawn) [Compound 6AJ, 5-(4-(cyclobuthylmethyl)-1-((4-fluorophenyl)sulfonyl)pyrrolidin-2-yl)-3-(3-phenylpropyl)-1,2,4-oxsdiazole], less than 10 µM. Regarding `CN(C)c1ccc(S(=O)(=O)N2CC(CC3CCC3)CC2c2nc(CCCc3ccccc3)no2)cc1` (stereo not drawn) [Compound 6AK, 4-((4-(cyclobuthylmethyl)-2-(3-(3-phenylpropyl)-1,2,4-oxadiazole-5-yl)pyrrolidin-1-yl)sulfonyl)-N,N-dimethylaniline], the IC50 was less than 10 µM.

Regarding `CN(C)c1cccc2c(S(=O)(=O)N3CC(CC4CCC4)CC3c3nc(CCCc4ccccc4)no3)cccc12` (stereo not drawn) [Compound 6AL, 5-((4-(cyclobuthylmethyl)-2-(3-(3-phenylpropyl)-1,2,4-oxadiazole-5-yl)pyrrolidin-1-yl)sulfonyl)-N,N-dimethylnaphthalen-1-amine], the IC50 was less than 10 µM. For `CC(C)(C)OC(=O)N1CC(CS(=O)(=O)N2CC(CC3CCC3)CC2c2nc(CCCc3ccccc3)no2)C1` (stereo not drawn) [Compound 6AM, tert-buthyl 3-(((4-(cyclobuthylmethyl)-2-(3-(3-phenylpropyl)-1,2,4-oxadiazole-5-yl)pyrrolidin-1-yl)sulfonyl)methyl)azetidin-1-carboxylate] the value was less than 10 µM; for `CC(C)(C)OC(=O)N1CCC(CS(=O)(=O)N2CC(CC3CCC3)CC2c2nc(CCCc3ccccc3)no2)CC1` (stereo not drawn) [Compound 6AN, tert-buthyl 4-(((4-(cyclobuthylmethyl)-2-(3-(3-phenylpropyl)-1,2,4-oxadiazole-5-yl)pyrrolidin-1-yl)sulfonyl)methyl)piperidin-1-carboxylate], 10 to 50 µM; for `CC(C)(C)OC(=O)N1CCC(S(=O)(=O)N2CC(CC3CCC3)CC2c2nc(CCCc3ccccc3)no2)CC1` (stereo not drawn) [Compound 6AO], greater than 50 µM. For the compound `O=S(=O)(C1CCOCC1)N1CC(CC2CCC2)CC1c1nc(CCCc2ccccc2)no1` (stereo not drawn) [Compound 6AP, 5-(4-(cyclobuthylmethyl)-1-((tetrahydro-2H-pyran-4-yl)sulfonyl)pyrrolidin-2-yl)-3-(3-phenylpropyl)-1,2,4-oxadiazole], the IC50 is less than 10 µM. As for `O=S(=O)(C1CCCCC1)N1CC(CC2CCC2)CC1c1nc(CCCc2ccccc2)no1` (stereo not drawn) [Compound 6B, 3-(3-phenylpropyl)-5-(1-cyclohexylsulfonyl-4-cyclobutylmethylpyrrolidin-2-yl)-1,2,4-oxadiazole], the IC50 is less than 10 µM. As for `CS(=O)(=O)N1CC(CC2CCC2)CC1c1nc(CCCc2ccccc2)no1` (stereo not drawn) [Compound 6C, 3-(3-phenylpropyl)-5-(1-methanesulfonyl-4-cyclobutylmethylpyrrolidin-2-yl)-1,2,4-oxadiazole], the figure is less than 10 µM. With `O=S(=O)(c1ccccc1)N1CC(CC2CCC2)CC1c1nc(CCCc2ccccc2)no1` (stereo not drawn) [Compound 6D, 3-(3-phenylpropyl)-5-(1-benzenesulfonyl-4-cyclobutylmethylpyrrolidin-2-yl)-1,2,4-oxadiazole], the IC50 was less than 10 µM. As for `O=S(=O)(Cc1ccccc1)N1CC(CC2CCC2)CC1c1nc(CCCc2ccccc2)no1` (stereo not drawn) [Compound 6E, 3-(3-phenylpropyl)-5-(1-benzylsulfonyl-4-cyclobutylmethylpyrrolidin-2-yl)-1,2,4-oxadiazole], the figure is less than 10 µM; as for `CC(C)(C)OC(=O)N1C[C@H](c2ccccc2)C[C@H]1c1nc(CCCc2ccccc2)no1` [Compound 7-1, 3-(3-phenylpropyl)-5-[(2S,4S)-1-tert-butoxycarbonyl-4-phenylpyrrolidin-2-yl]-1,2,4-oxadiazole], less than 10 µM.
